Reference: article PMC3542272, “A Homogeneous, High-Throughput Assay for Phosphatidylinositol 5-Phosphate 4-Kinase with a Novel, Rapid Substrate Preparation” (PLoS ONE, 2013)
pIC50, pKi: −log10 of the molar value. Values joined by “and” are separate entries in the source; they are usually repeats but may differ in a detail not shown here. Equal entries are not always repeated. “Also recorded” adds a separate entry of the source. Values belong to the compound of their own block, whether it stands above or below them.

Assays:
PI5P4Kα [1] = target: T1, PI5P4Kα (Homo sapiens, UniProt P48426); assay: Miniaturized 1536-well luciferase-coupled bioluminescence (ADP-Glo) PI5P4Kα enzyme activity assay; assay type: biochemical; conditions: for inhibitory activity against PI5P4Kα (in words): miniaturized assay / LOPAC1280 screen
T1 construct: made in house
T1 sequence (P48426 1-406): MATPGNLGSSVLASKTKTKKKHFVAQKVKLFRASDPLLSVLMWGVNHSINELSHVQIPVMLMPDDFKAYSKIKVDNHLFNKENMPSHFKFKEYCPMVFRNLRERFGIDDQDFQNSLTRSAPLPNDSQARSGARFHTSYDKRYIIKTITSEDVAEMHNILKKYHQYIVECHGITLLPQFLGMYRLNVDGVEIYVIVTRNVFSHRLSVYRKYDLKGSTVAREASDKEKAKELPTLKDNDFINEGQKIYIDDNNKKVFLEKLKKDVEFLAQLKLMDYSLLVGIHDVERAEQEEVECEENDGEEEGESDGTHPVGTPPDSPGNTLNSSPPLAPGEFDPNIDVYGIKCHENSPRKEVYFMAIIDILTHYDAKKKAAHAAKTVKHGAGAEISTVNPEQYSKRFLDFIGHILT
Procedure: PI5P4Kα (52.4 µL) was added to the lipid reagent (3 mL, described above) to form the enzyme-lipid mixture. First, 2 µL of the enzyme/lipid substrate reagent (2 µg/mL PI5P4Kα final concentration) were dispensed into a white solid-bottom 1536-well plate in columns 1–2, […] using a Flying Reagent Dispenser (FRD, Beckman Coulter, Fullerton, CA, USA). Into columns 3 and 4, 2 µL of a no-lipid and no-enzyme control were dispensed, respectively, where the lipid was replaced by DMSO or the enzyme was replaced by buffer (20 mM Hepes 7.4, 0.1% CHAPS) in the enzyme-lipid mixture. Then, 23 nL of the library compounds and control compounds were transferred by a 1536 pintool (Kalypsys Systems, San Diego, CA, USA) into wells 5–48 and 1–4, respectively. To initiate the reaction, 1 µL of the ATP solution (20 mM Hepes pH 7.4, 60 mM MgCl2, 0.015 mM ATP and 0.1% CHAPS) was added. The final concentration of DMSO in the reaction was 5%. The resulting mixture was incubated at room temperature in the dark for one hour, at which time 2 µL of ADP-Glo reagent 1 were added to stop the reaction and remove any remaining ATP. After a 45-minute incubation, 4 µL of the ADP-Glo reagent 2 were added and allowed to incubate for 30 minutes. The luminescence was then read with a ViewLux high-throughput CCD imager (Perkin Elmer, Waltham, MA, USA). A total of six plates were assayed: one DMSO plate for monitoring the background trends and five concentrations of the LOPAC library (152, 76, 15, 3 and 0.6 µM final assay concentrations, respectively). The top concentration in the assay was attained by two sequential pin transfers of the top concentration of the compound library.
Screening data were corrected and normalized, and concentration-response curves were derived using in-house algorithms. Overall assay performance, including trends in Z’ factor, % CV, and S/B, were recorded. Percent activity was computed after normalization using the median values of the uninhibited enzyme control (32 wells in column 1) and the no-enzyme, or 100% inhibited, control (32 wells, column 4). Additionally, the compound structures were evaluated, and the long chain compounds such as the C18 containing compounds from LOPAC^1280 that are likely to act by disrupting the lipid vesicles were eliminated. Selected actives were procured for re-testing in the primary screening assay and for use in the counter assays and substrate competition assay.

GST-PI5P4Kα = target: T2, GST-PI5P4Kα (Homo sapiens, UniProt P48426); assay: γ-32P-ATP incorporation assay and TLC (radiometric PI5P4K assay); assay type: biochemical
T2 construct: made in house
T2 sequence (P48426 1-406): T1 sequence (P48426 1-406)
Procedure: The PI5P4K assay was carried out as described in [10], [22], [23]. Briefly, the kinase reaction was carried out in a total of 50 µL of kinase buffer containing 20 µL of the resuspended lipids, 50 mM HEPES pH 7.4, 10 mM MgCl2, 10 µM non-radiolabeled ATP, 10 µCi [γ-^32P]-ATP with 0.1 µg of GST-PI5P4Kα for 7 minutes at room temperature. The reaction was terminated by adding 20 µL of 4 N HCl. Phosphoinositides were extracted by adding 70 µL of methanol/chloroform (1∶1, vol:vol) mix and subjected to TLC (thin-layer chromatography) separation using heat-activated 2% […] silica gel 60 plates (20 cm×20 cm, EMD Chemicals Inc., Billerica, MA, USA) and a 1-propanol/2 M acetic acid (65∶35, vol:vol) solvent system. The radiolabeled product, PI(4,5)P2, was quantified with a Phosphorimager (Molecular Dynamics, STORM840, GE Healthcare, Waukesha, WI, USA).

PI5P4Kα [2] = target: T1, PI5P4Kα; assay: Substrate (ATP) competition assay, miniaturized ADP-Glo PI5P4Kα assay; assay type: biochemical; conditions: for mode of inhibition with respect to ATP: IC50 vs [ATP]/Km, seven ATP concentrations; for dependence of potency on ATP: varied ATP concentration
Source text: The experiment was otherwise conducted as described above for the miniaturized ADP-Glo enzyme assay.

PI5P4Kα [3] = target: T1, PI5P4Kα; assay: Miniaturized 1536-well luciferase-coupled bioluminescence (ADP-Glo) PI5P4Kα enzyme activity assay; assay type: biochemical; conditions: freshly plated stock of reacquired compound, 11-point titration
IGF1R = test system: IGF1R; set-up: method as in PMID 11123895; conditions: cited from earlier work
[4] = target: insulin-like growth factor 1 receptor (IGF1R); set-up: method as in PMID 11123895; conditions: cited from earlier work
[5] = LOPAC1280 qHTS pilot screen, 5 µM ATP, 75 µM PI5P, 5% DMSO

Compound: CCCCCCCCCCCCCCCCCCOC[C@H](COP(=O)(O)OCC[N+](C)(C)C)OC [1-O-Octadecyl-2-O-methyl-sn-glycero-3-phosphorylcholine]
- inhibitory activity against PI5P4Kα (in words) (PI5P4Kα [1]): identified as inhibitors

Compound: CC(C)(C)c1cc(C=C(C#N)C#N)cc(C(C)(C)C)c1O [AG17]
- inhibition of PI5P4Kα (in words) (GST-PI5P4Kα; tested at 100 µM): not to significantly inhibit

Compound: N#CC(C#N)=Cc1ccc(O)c(O)c1 [AG18]
- inhibition of PI5P4Kα (in words) (GST-PI5P4Kα; tested at 100 µM): not to significantly inhibit

Compound: COc1cc(/C=C(\C#N)C(=O)c2ccc(O)c(O)c2)cc(I)c1O [I-OMe-AG-538]
- pIC50 (PI5P4Kα [1]; [5]): 5.60 and 5.70
- mode of inhibition with respect to ATP (PI5P4Kα [2]): competitive inhibition; also recorded: competitive with respect to ATP
- mode of inhibition with respect to ATP (PI5P4Kα [2]; listed as I-OMe tyrphostin AG-538): ATP-competitive inhibitor
- pKi (PI5P4Kα [2]; seven ATP concentrations 0.25xKm to 10xKm, Km of ATP 5 µM): 6.30
- pIC50 (PI5P4Kα [3]): 6.00
- inhibition of IGF1R in a cell assay (in words) (IGF1R): inhibited IGF1R in a similar dose-dependent manner

Compound: COc1c(C)c2c(c(O)c1C/C=C(\C)CCC(=O)O)C(=O)OC2 [MP, mycophenolate]
- inhibition of PI5P4Kα (in words) (GST-PI5P4Kα; tested at 100 µM): not to significantly inhibit

Compound: CC(C)[C@H](CO)Nc1nc(Nc2ccc(C(=O)O)c(Cl)c2)c2ncn(C(C)C)c2n1 [PVB, purvalanol B]
- inhibition of PI5P4Kα (in words) (GST-PI5P4Kα; tested at 10 µM due to solubility limitations): not to significantly inhibit

Compound: CCCCCCCC/C=C\CCCCCCCC(N)=O [oleamide]
- pIC50 (PI5P4Kα [1]; weak inhibitors, ADP-Glo assay): ~4.52
- dependence of potency on ATP (PI5P4Kα [2]): did not vary with ATP

Compound: N#CC(C#N)=Cc1ccc(O)c(O)c1 [tyrphostin 23]
- pIC50 (PI5P4Kα [1]; [5]): 4.35

Compound: N#C/C(=C\c1ccc(O)c(O)c1)C(N)=S [tyrphostin 47]
- pIC50 (PI5P4Kα [1]; [5]): 4.70

Compound: N#CC(C#N)=C(N)/C(C#N)=C/c1cc(O)c(O)c(O)c1 [tyrphostin 51]
- pIC50 (PI5P4Kα [1]; [5]): 5.30

Compound: N#C/C(=C\c1ccc(O)c(O)c1)C(=O)NCc1ccccc1 [tyrphostin AG 490]
- pIC50 (PI5P4Kα [1]; [5]): 4.05

Compound: N#C/C(=C\c1ccc(O)c(O)c1)C(=O)Nc1ccccc1 [tyrphostin AG 494]
- pIC50 (PI5P4Kα [1]; [5]): 4.05

Compound: N#C/C(=C\c1ccc(O)c(O)c1)C(=O)NCCCNC(=O)/C(C#N)=C/c1ccc(O)c(O)c1 [tyrphostin AG 537]
- pIC50 (PI5P4Kα [1]; [5]): 4.49

Compound: N#C/C(=C\c1ccc(O)c(O)c1)C(=O)c1ccc(O)c(O)c1 [tyrphostin AG 538]
- pIC50 (PI5P4Kα [1]; [5]): 4.85
- pIC50 [4]: 7.22
- inhibition of IGF1R in a cell assay (in words) (IGF1R): inhibited IGF1R in a similar dose-dependent manner

Compound: N#C/C(=C\c1ccc(O)c(O)c1)C(=O)NCCCc1ccccc1 [tyrphostin AG 555]
- pIC50 (PI5P4Kα [1]; [5]): 4.30

Compound: N#C/C(=C\c1c[nH]c2ccccc12)C(=O)c1ccc(O)c(O)c1 [tyrphostin AG 808]
- pIC50 (PI5P4Kα [1]; [5]): 4.74

Compound: COc1cc2ncnc(Nc3cccc(Cl)c3)c2cc1OC [tyrphostin AG 1478]
- pIC50 (PI5P4Kα [1]; [5]): 4.00

Results, then the compound that gave them:

- pIC50 (PI5P4Kα [1]; weak inhibitors, ADP-Glo assay): ~4.52
- dependence of potency on ATP (PI5P4Kα [2]): did not vary with ATP
Compound: CCCCCCCC/C=C\CCCCCCCC(=O)N[C@@H](CO)Cc1ccc(O)cc1 [OMDM-2, (R)-N-oleoyl Tyrosinol]

- inhibition of PI5P4Kα (in words) (GST-PI5P4Kα; tested at 100 µM): not to significantly inhibit
Compound: Cc1[nH]c(/C=C2\C(=O)Nc3ccccc32)c(C)c1CCC(=O)O [SU6668]

- pIC50 (PI5P4Kα [1]; [5]): 4.03
- inhibitory activity against PI5P4Kα (in words) (PI5P4Kα [1]): confirmed
- inhibition at 100 µM (GST-PI5P4Kα; tested at 100 µM): 75%
Compound: N#CC(C#N)=Cc1cc(O)c(O)c(O)c1 [Tyrphostin AG-82]
